Assay results from PMC11199504, “New hemisynthetic derivatives of sphaeropsidin phytotoxins triggering severe endoplasmic reticulum swelling in cancer cells” (Scientific Reports, 2024).
Read-outs that look alike come from different tables or passages of the source.

What was measured:
[1] = test system: 60 cancer cell line panel; settings: NCI database value; ref NCI database; read-out: LC50 (NCI); cited from earlier work
Hs683 = assay: MTT colorimetric assay, Hs683; format: cell-based; settings: Homo sapiens, Hs 683; 72 h treatment; mean ± SEM; sensitive to apoptosis; read-out: IC50 determined by MTT assays, Hs683
Text: (§1) Cancer cell lines were obtained from either the European Collection of Cell Cultures (ECACC; Salisbury, UK) or the American Type Culture Collection (ATCC; Manassas, VA). The two glioma cell lines were the U373 (ECACC code 08061901) and Hs683 (ATCC HTB-138) cell lines. The carcinoma cell lines were the A549 non-small cell carcinoma cell line (ATCC code CCL 185) and the MCF-7 mammary breast carcinoma cell line (ATCC code HTB-22). The melanoma cell lines were the mouse B16F10 cells (ATCC code CRL-6475) and the human SKMEL-28 cells (ATCC code HTB-72). The ovarian cancer cell line A2780 and its cisplatin-resistant subline A2780cis were obtained from Sigma-Aldrich (St. Louis, MO, USA). Colon cancer HCT116 cells were obtained from ATCC (CCL-247) and the oxaliplatin-resistant subline HCT116/OxR established in the W. Berger lab[59]. The HeLa cell derivative KB-3-1 and the colchicine-selected, highly ABCB1-overexpressing subline KB-C-1 were generously donated by Dr. D. W. Shen, Bethesda, MD. RKOp53wt colon cancer cells together with the RKOp53KO (homozygous knock-out) subline[60] were generously provided by Dr. Vogelstein from John Hopkins University, Baltimore. The correct origin of all cell models was confirmed by STR during performance of the experiments. All cell lines were cultured in RPMI1640 culture medium supplemented with 10% heat-inactivated fetal bovine serum, 2% L-glutamine (0.6 mg/mL), 2% penicillin/streptomycin (200 IU/mL and 200 μg/mL) and 0.1 mg/mL gentamicin.
(§2) The MTT (3-(4,5-dimethylthiazol-2-yl)-2,5-diphenyl tetrazolium bromide) colorimetric assay has been conducted as described previously. Briefly, cells were seeded 24 h before their treatment with each compound for a period of 72 h. The concentrations tested ranged from 10 nM to 100 µM. Each assay was conducted in sextuplicates. The number of independent experiments is mentioned in the legend of the tables.

[2] = test system: A549, SKMEL-28, U373, MCF7, Hs683, B16F10; assay: MTT colorimetric assay, mean of the six cell lines; format: cell-based; settings: for IC50: mean over the six cell lines, 72 h treatment, read-out: IC50 determined by MTT assays, Mean; for activity in the cancer cell panel: MTT, alone
Text: as §1, §2

B16F10 = assay: MTT colorimetric assay, B16F10; format: cell-based; settings: Mus musculus, B16-F10; 72 h treatment; mean ± SEM; sensitive to apoptosis; read-out: IC50 determined by MTT assays, B16F10
Text: as §1, §2

SKMEL-28 = assay: MTT colorimetric assay, SKMEL-28; format: cell-based; settings: Homo sapiens, SK-MEL-28; 72 h treatment; mean ± SEM; resistant to apoptosis; read-out: IC50 determined by MTT assays, SKMEL-28
Text: as §1, §2

MCF7 = assay: MTT colorimetric assay, MCF7; format: cell-based; settings: Homo sapiens, 72 h treatment, mean ± SEM, sensitive to apoptosis, read-out: IC50 determined by MTT assays, MCF7
Text: as §1, §2

A549 = assay: MTT colorimetric assay, A549; format: cell-based; settings: Homo sapiens, 72 h treatment, mean ± SEM of six replicates of one experiment (1: 7, 13: 6 independent experiments), resistant to apoptosis, read-out: IC50 determined by MTT assays, A549
Text: as §1, §2

U373 = assay: MTT colorimetric assay, U373; format: cell-based; settings: Homo sapiens, U373 MG; 72 h treatment; mean ± SEM; resistant to apoptosis; read-out: IC50 determined by MTT assays, U373
Text: as §1, §2

| IC50 ([2]; 72 h) [µM] | IC50 (B16F10) [nM] | IC50 (SKMEL-28) [µM] | IC50 (MCF7) [µM] | IC50 (A549) [µM] | IC50 [2] [µM] | SMILES | CC50 [1] [µM] | IC50 (Hs683) [µM] | activity in the cancer cell panel [2] | IC50 (U373) [µM] |
| --- | --- | --- | --- | --- | --- | --- | --- | --- | --- | --- |
| – | – | – | – | – | – | CC(=O)N(C)c1ccc(Nc2cc(C)nc3ccc4[nH]cnc4c23)cc1 [Acodazole] | 114 | – | – | – |
| – | – | – | – | – | – | COc1cc(NS(C)(=O)=O)ccc1Nc1c2ccccc2nc2ccccc12 [Amsacrine] | 25 | – | – | – |
| – | – | – | – | – | – | CC/C(=C(\c1ccccc1)c1ccc(OCCN(C)C)cc1)c1ccccc1 [Tamoxifen] | 26 | – | – | – |
| – | – | – | – | – | – | COc1ccc2c(c1)-c1nn(CCCN(C)C)c3ccc([N+](=O)[O-])c(c13)N2 [Pyrazolo acridine] | 23.3 | – | – | – |
| – | – | – | – | – | – | COc1ccc(C(=O)/C(Br)=C\C(=O)O)cc1 [Cytembena] | 802 | – | – | – |
| > 94 | 81300 ± 2420 | > 100 | > 100 | > 100 | > 94.4 | CC1(C=CCCCC(=O)O)C=C2C(=O)C3(O)OC(=O)C4(CCCC(C)(C)C34)C2(O)CC1 (centres unmarked) [Compound 8] | – | 85.3 ± 5.25 | inactive | > 100 |
| – | – | – | – | – | – | O=c1n(CC2CO2)c(=O)n(CC2CO2)c(=O)n1CC1CO1 (centres unmarked) [Teroxirone] | 387 | – | – | – |
| 2.67 ± 0.15 | 2550 ± 130 | 2.77 ± 0.18 | 2.89 ± 0.08 | 2 ± 0.13 | – | CC1(C=CCCBr)C=C2C(=O)C3(O)OC(=O)C4(CCCC(C)(C)C34)C2(O)CC1 (centres unmarked) [Compound 11] | – | 2.99 ± 0.07 | – | 2.81 ± 0.08 |
| 2.54 ± 0.22 | 2520 ± 210 | 2.29 ± 0.09 | 3.06 ± 0.22 | 1.61 ± 0.14 | – | CC1(C=Cc2ccccc2)C=C2C(=O)C3(O)OC(=O)C4(CCCC(C)(C)C34)C2(O)CC1 (centres unmarked) [Compound 12] | – | 2.72 ± 0.11 | – | 3.06 ± 0.07 |
| 5.03 ± 0.82 | 2330 ± 290 | 5.06 ± 0.58 | 6.88 ± 0.26 | 4.5 ± 0.07 | – | COC(=O)CCC=CC1(C)C=C2C(=O)C3(O)OC(=O)C4(CCCC(C)(C)C34)C2(O)CC1 (centres unmarked) [Compound 7] | – | 3.63 ± 0.15 | – | 7.75 ± 0.31 |

| SMILES | IC50 ([2]; 72 h) [µM] | IC50 (B16F10) [nM] | IC50 (SKMEL-28) [µM] | IC50 (MCF7) [µM] | IC50 (A549) [µM] | IC50 [2] [µM] | CC50 [1] [µM] | IC50 (Hs683) [µM] | activity in the cancer cell panel [2] | IC50 (U373) [µM] |
| --- | --- | --- | --- | --- | --- | --- | --- | --- | --- | --- |
| C=CCCCc1ccc2ccc3cccc4ccc1c2c34 [Compound 14, reference compound] | > 87.3 | 73100 ± 1320 | > 100 | 76 ± 1.55 | 78.8 ± 1.26 | – | – | 96.12 ± 0.5 | inactive | > 100 |
